In patent US9624214B2, “Amino-substituted imidazo[1,2-a]pyridinecarboxamides and their use” (BAYER PHARMA AKTIENGESELLSCHAFT, priority 2012, dated 2017):

Biological target: T1, recombinant guanylate cyclase reporter cell line (Rattus norvegicus, UniProt P19686+P20595)
T1 construct: expressed in transfected cells
T1 sequence (P20595 1-619): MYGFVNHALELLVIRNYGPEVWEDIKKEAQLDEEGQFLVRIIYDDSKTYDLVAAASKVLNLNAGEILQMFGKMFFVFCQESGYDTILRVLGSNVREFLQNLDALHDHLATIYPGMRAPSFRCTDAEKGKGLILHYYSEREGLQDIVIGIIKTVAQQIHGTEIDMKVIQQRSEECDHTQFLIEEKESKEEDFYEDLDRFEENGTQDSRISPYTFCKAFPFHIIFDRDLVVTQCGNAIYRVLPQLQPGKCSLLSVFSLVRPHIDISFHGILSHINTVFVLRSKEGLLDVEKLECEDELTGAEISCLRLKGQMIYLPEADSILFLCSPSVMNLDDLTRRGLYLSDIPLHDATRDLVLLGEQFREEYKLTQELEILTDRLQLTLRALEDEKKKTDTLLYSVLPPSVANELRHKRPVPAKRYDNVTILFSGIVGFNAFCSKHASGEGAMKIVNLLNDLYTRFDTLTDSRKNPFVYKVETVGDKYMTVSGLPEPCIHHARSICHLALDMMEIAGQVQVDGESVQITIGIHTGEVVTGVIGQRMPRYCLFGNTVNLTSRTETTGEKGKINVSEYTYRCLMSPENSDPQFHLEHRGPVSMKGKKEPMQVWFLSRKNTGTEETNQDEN
T1 sequence (P19686 1-690): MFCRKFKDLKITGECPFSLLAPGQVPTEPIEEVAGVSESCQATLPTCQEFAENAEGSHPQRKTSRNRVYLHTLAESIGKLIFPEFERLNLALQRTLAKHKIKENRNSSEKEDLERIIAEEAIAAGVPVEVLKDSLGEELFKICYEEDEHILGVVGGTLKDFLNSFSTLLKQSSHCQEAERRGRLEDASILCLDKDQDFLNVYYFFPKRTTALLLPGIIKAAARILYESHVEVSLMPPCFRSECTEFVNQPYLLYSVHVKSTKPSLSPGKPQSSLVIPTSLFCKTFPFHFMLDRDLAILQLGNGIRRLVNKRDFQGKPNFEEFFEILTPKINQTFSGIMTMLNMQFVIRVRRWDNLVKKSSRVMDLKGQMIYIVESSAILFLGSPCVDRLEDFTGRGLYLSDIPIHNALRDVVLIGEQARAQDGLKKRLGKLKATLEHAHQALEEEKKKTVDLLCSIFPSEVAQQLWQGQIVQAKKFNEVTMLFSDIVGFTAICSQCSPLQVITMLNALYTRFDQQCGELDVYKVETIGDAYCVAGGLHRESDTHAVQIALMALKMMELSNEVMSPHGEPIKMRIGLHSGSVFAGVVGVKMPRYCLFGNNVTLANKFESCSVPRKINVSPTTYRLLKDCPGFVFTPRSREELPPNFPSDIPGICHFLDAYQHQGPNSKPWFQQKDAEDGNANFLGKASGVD
Assay: B-2. Action on recombinant guanylate cyclase reporter cell line
Type: cell-based
Settings: MEC = minimal effective concentration; in some cases mean values from individual determinations
Description: B-2. Action on Recombinant Guanylate Cyclase Reporter Cell Line
The cellular action of the compounds according to the invention is determined on a recombinant guanylate cyclase reporter cell line, as described in F. Wunder et al., Anal. Biochem. 339, 104-112 (2005).
Representative MEC values (MEC=minimal effective concentration) for the compounds according to the invention are shown in the following table (in some cases as mean values obtained from individual determinations): […]

| SMILES | MEC |
| --- | --- |
| Cc1nc2c(OCc3c(F)cccc3F)cccn2c1C(=O)NC1CNc2ccccc2C1 (racemic) [Example 75, rac-8-[(2,6-Difluorobenzyl)oxy]-2-methyl-N-(1,2,3,4-tetrahydroquinolin-3-yl)imidazo[1,2-a]-pyridine-3-carboxamide] | 1.00 µM |
| Cc1cc(OCc2c(F)cccc2F)c2nc(C)c(C(=O)NC3CNc4ccccc4C3)n2c1 (racemic) [Example 76, rac-8-[(2,6-difluorobenzyl)oxy]-2,6-dimethyl-N-(1,2,3,4-tetrahydroquinolin-3-yl)imidazo[1,2-a]-pyridine-3-carboxamide] | 0.30 µM |
| Cc1cc(OCc2c(F)cccc2F)c2nc(C)c(C(=O)NC(C)C3CCN(C)CC3)n2c1 (racemic) [Example 77, rac-8-[(2,6-difluorobenzyl)oxy]-2,6-dimethyl-N-[1-(1-methylpiperidin-4-yl)ethyl]imidazo[1,2-a]-pyridine-3-carboxamide] | 1.00 µM |
| Cc1nc2c(OCc3c(F)cccc3F)cc(Cl)cn2c1C(=O)NC(C)C1CCN(C)CC1 (racemic) [Example 78, rac-6-chloro-8-[(2,6-difluorobenzyl)oxy]-2-methyl-N-[1-(1-methylpiperidin-4-yl)ethyl]-imidazo[1,2-a]pyridine-3-carboxamide] | 1.00 µM |
| Cc1nc2c(OCc3c(F)cccc3F)cccn2c1C(=O)NCC1NCCc2ccccc21 (racemic) [Example 80, rac-8-[(2,6-difluorobenzyl)oxy]-2-methyl-N-(1,2,3,4-tetrahydroisoquinolin-1-ylmethyl)-imidazo[1,2-a]pyridine-3-carboxamide] | 1.00 µM |
| Cc1nc2c(OCc3c(F)cccc3F)cccn2c1C(=O)NC1CCCN(C)C1 (racemic) [Example 84, rac-8-[(2,6-difluorobenzyl)oxy]-2-methyl-N-(1-methylpiperidin-3-yl)imidazo[1,2-a]-pyridine-3-carboxamide] | 1.00 µM |
| Cc1nc2c(OCc3c(F)cccc3F)cccn2c1C(=O)NC1CCN(Cc2ccccc2)C1 (racemic) [Example 85, rac-N-(1-benzylpyrrolidin-3-yl)-8-[(2,6-difluoro-benzyl)oxy]-2-methylimidazo[1,2-a]-pyridine-3-carboxamide] | 1.00 µM |
| Cc1nc2c(OCc3c(F)cccc3F)cc(Cl)cn2c1C(=O)NCC1CCCCN1 (racemic) [Example 118, rac-6-chloro-8-[(2,6-difluorobenzyl)oxy]-2-methyl-N-(piperidin-2-ylmethyl)imidazo[1,2-a]-pyridine-3-carboxamide] | 1.00 µM |
| Cc1nc2c(OCc3c(F)cccc3F)cccn2c1C(=O)NC12CNCCC1C2 (racemic) [Example 125, rac-N-(3-Azabicyclo[4.1.0]hept-1-yl)-8-[(2,6-difluorobenzyl)oxy]-2-methylimidazo[1,2-a]-pyridine-3-carboxamide] | 1.00 µM |
| Cc1nc2c(OCc3c(F)cccc3F)cccn2c1C(=O)NCC(C)N1CCOCC1 (racemic) [Example 132, rac-8-[(2,6-difluorobenzyl)oxy]-2-methyl-N-[2-(morpholin-4-yl)propyl]imidazo[1,2-a]pyridine-3-carboxamide] | 1.00 µM |
| Cc1nc2c(OCc3c(F)cccc3F)cccn2c1C(=O)NC(CN1CCOCC1)c1ccccc1 (racemic) [Example 134, rac-8-[(2,6-difluorobenzyl)oxy]-2-methyl-N-[2-(morpholin-4-yl)-1-phenylethyl]imidazo[1,2-a] - pyridine-3-carboxamide] | 3.00 µM |
| Cc1cc(OCc2c(F)cccc2F)c2nc(C)c(C(=O)NCCNC(C)C)n2c1 (racemic) [Example 135, rac-8-[(2,6-difluorobenzyl)oxy]-N-[2-(isopropylamino)ethyl]-2,6-dimethylimidazo[1,2-a]pyridine-3-carboxamide] | 1.00 µM |
| Cc1cc(OCc2c(F)cccc2F)c2nc(C)c(C(=O)NCC(C)N3CCOCC3)n2c1 (racemic) [Example 138, rac-8-[(2,6-difluorobenzyl)oxy]-2,6-dimethyl-N-[2-(morpholin-4-yl)propyl]imidazo[1,2-a]-pyridine-3-carboxamide] | 0.30 µM |
| Cc1nc2c(OCc3c(F)cccc3F)cccn2c1C(=O)NCC(C(C)C)N(C)C (racemic) [Example 142, rac-8-[(2,6-difluorobenzyl)oxy]-N-[2-(dimethyl-amino)-3-methylbutyl]-2-methylimidazo[1,2-a]-pyridine-3-carboxamide] | 1.00 µM |
| Cc1nc2c(OCc3c(F)cccc3F)cc(Cl)cn2c1C(=O)NCC(N)CC(F)(F)F (racemic) [Example 147, rac-N-(2-amino-4,4,4-trifluorobutyl)-6-chloro-8-[(2,6-difluorobenzyl)oxy]-2-methylimidazo[1,2-a]pyridine-3-carboxamide] | 0.30 µM |
| CCC(C)(N)CNC(=O)c1c(C)nc2c(OCc3c(F)cccc3F)cc(Cl)cn12 (racemic) [Example 157, rac-N-(2-amino-2-methylbutyl)-6-chloro-8-[(2,6-difluorobenzyl)oxy]-2-methylimidazo[1,2-a]-pyridine-3-carboxamide] | 0.30 µM |
| COCC(C)(N)CNC(=O)c1c(C)nc2c(OCc3c(F)cccc3F)cc(Cl)cn12 (racemic) [Example 159, rac-N-(2-amino-3-methoxy-2-methylpropyl)-6-chloro-8-[(2,6-difluorobenzyl)oxy]-2-methylimidazo[1,2-a]pyridine-3-carboxamide] | 0.30 µM |
| COCC(C)(N)CNC(=O)c1c(C)nc2c(OCc3c(F)cccc3F)cc(C)cn12 (racemic) [Example 166, rac-N-(2-amino-3-methoxy-2-methylpropyl)-8-[(2,6-difluorobenzyl)oxy]-2,6-dimethylimidazo[1,2-a]pyridine-3-carboxamide] | 0.30 µM |
| Cc1nc2c(OCc3c(F)cccc3F)cccn2c1C(=O)NCC(C)(N)CC(C)C (racemic) [Example 202, rac-N-(2-Amino-2,4-dimethylpentyl)-8-[(2,6-difluorobenzyl)oxy]-2-methylimidazo[1,2-a]pyridine-3-carboxamide] | 0.10 µM |
| Cc1nc2c(OCc3c(F)cccc3F)cccn2c1C(=O)NCC(N)COC(C)C (racemic) [Example 205, rac-N-(2-Amino-3-isopropoxypropyl)-8-[(2,6-difluorobenzyl)oxy]-2-methylimidazo[1,2-a]-pyridine-3-carboxamide] | 0.30 µM |
| Cc1cc(OCc2c(F)cccc2F)c2nc(C)c(C(=O)NCC(N)COC(C)C)n2c1 (racemic) [Example 206, rac-N-(2-Amino-3-isopropoxypropyl)-8-[(2,6-difluorobenzyl)oxy]-2,6-dimethylimidazo[1,2-a]-pyridine-3-carboxamide] | 0.30 µM |
| Cc1nc2c(OCc3c(F)cccc3F)cccn2c1C(=O)NCC(N)C(F)(F)F (racemic) [Example 207, rac-N-(2-Amino-3,3,3-trifluoropropyl)-8-[(2,6-difluorobenzyl)oxy]-2-methylimidazo[1,2-a]-pyridine-3-carboxamide] | 1.00 µM |
| COCC(C)(N)CNC(=O)c1c(C)nc2c(OCc3c(F)cccc3F)cccn12 (racemic) [Example 213, rac-N-(2-Amino-3-methoxy-2-methylpropyl)-8-[(2,6-difluorobenzyl)oxy]-2-methylimidazo[1,2-a]-pyridine-3-carboxamide] | 1.00 µM |
| Cc1nc2c(OCc3c(F)cccc3F)cc(Cl)cn2c1C(=O)NCC(N)COC(C)C (racemic) [Example 217, rac-N-(2-Amino-3-isopropoxypropyl)-6-chloro-8-[(2,6-difluorobenzyl)oxy]-2-methylimidazo[1,2-a]pyridine-3-carboxamide] | 1.00 µM |
| Cc1cc(OCc2c(F)cccc2F)c2nc(C)c(C(=O)NCC(C)(N)CC(C)C)n2c1 (racemic) [Example 218, rac-N-(2-Amino-2,4-dimethylpentyl)-8-[(2,6-difluorobenzyl)oxy]-2,6-dimethylimidazo[1,2-a]-pyridine-3-carboxamide] | 0.10 µM |
